Results published in PubChem BioAssay (NCI).
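Five compound concentrations were applied to cells in 96-well plates for 48 hours; endpoints were derived by simple linear interpolation of the resulting dose-response curve. GI50 marks 50% less growth. Definition used: TGI = concentration required for complete inhibition of growth.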

What was measured:
Test in all cases: DTP human tumour cell line panel, 48 h
786-0 renal = test system: 786-0 renal
A498 renal = test system: A498 renal
A549 NSCLC = test system: A549 NSCLC
ACHN renal = test system: ACHN renal
CCRF-CEM leukemia = test system: CCRF-CEM leukemia
COLO 205 colon = test system: COLO 205 colon
DLD-1 colon = test system: DLD-1 colon
DMS 273 small cell lung = test system: DMS 273 small cell lung
EKVX NSCLC = test system: EKVX NSCLC
HCC-2998 colon = test system: HCC-2998 colon
HCT-116 colon = test system: HCT-116 colon
HCT-15 colon = test system: HCT-15 colon
HOP-62 NSCLC = test system: HOP-62 NSCLC
HOP-92 NSCLC = test system: HOP-92 NSCLC
HT29 colon = test system: HT29 colon
IGROV1 ovarian = test system: IGROV1 ovarian
K-562 leukemia = test system: K-562 leukemia
KM12 colon = test system: KM12 colon
KM20L2 colon = test system: KM20L2 colon
LOX IMVI melanoma = test system: LOX IMVI melanoma
LXFL 529 NSCLC = test system: LXFL 529 NSCLC
M14 melanoma = test system: M14 melanoma
MALME-3M melanoma = test system: MALME-3M melanoma
MOLT-4 leukemia = test system: MOLT-4 leukemia
NCI-H23 lung = test system: NCI-H23 lung
NCI-H460 lung = test system: NCI-H460 lung
NCI-H522 lung = test system: NCI-H522 lung
OVCAR-3 ovarian = test system: OVCAR-3 ovarian
OVCAR-4 ovarian = test system: OVCAR-4 ovarian
OVCAR-5 ovarian = test system: OVCAR-5 ovarian
OVCAR-8 ovarian = test system: OVCAR-8 ovarian
RPMI-8226 leukemia = test system: RPMI-8226 leukemia
SF-268 CNS = test system: SF-268 CNS
SF-295 CNS = test system: SF-295 CNS
SF-539 CNS = test system: SF-539 CNS
SK-MEL-2 melanoma = test system: SK-MEL-2 melanoma
SK-MEL-28 melanoma = test system: SK-MEL-28 melanoma
SK-MEL-5 melanoma = test system: SK-MEL-5 melanoma
SK-OV-3 ovarian = test system: SK-OV-3 ovarian
SN12C renal = test system: SN12C renal
SNB-19 CNS = test system: SNB-19 CNS
SNB-75 CNS = test system: SNB-75 CNS
SNB-78 CNS = test system: SNB-78 CNS
SW-620 colon = test system: SW-620 colon
TK-10 renal = test system: TK-10 renal
U251 CNS = test system: U251 CNS
UACC-257 melanoma = test system: UACC-257 melanoma
UACC-62 melanoma = test system: UACC-62 melanoma
UO-31 renal = test system: UO-31 renal

N.N.N.N.N.NC(=O)[O-].[Co+3].[I-]
GI50 (786-0 renal): > 100 µM
TGI (786-0 renal): > 100 µM
GI50 (A498 renal): > 100 µM
TGI (A498 renal): > 100 µM
GI50 (A549 NSCLC): > 100 µM
TGI (A549 NSCLC): > 100 µM
GI50 (ACHN renal): > 100 µM
TGI (ACHN renal): > 100 µM
GI50 (CCRF-CEM leukemia): > 100 µM
TGI (CCRF-CEM leukemia): > 100 µM
GI50 (COLO 205 colon): > 100 µM
TGI (COLO 205 colon): > 100 µM
GI50 (DLD-1 colon): > 100 µM
TGI (DLD-1 colon): > 100 µM
GI50 (DMS 273 small cell lung): > 100 µM
TGI (DMS 273 small cell lung): > 100 µM
GI50 (EKVX NSCLC): > 100 µM
TGI (EKVX NSCLC): > 100 µM
GI50 (HCC-2998 colon): > 100 µM
TGI (HCC-2998 colon): > 100 µM
GI50 (HCT-116 colon): > 100 µM
TGI (HCT-116 colon): > 100 µM
GI50 (HCT-15 colon): > 100 µM
TGI (HCT-15 colon): > 100 µM
GI50 (HOP-62 NSCLC): > 100 µM
TGI (HOP-62 NSCLC): > 100 µM
GI50 (HOP-92 NSCLC): > 100 µM
TGI (HOP-92 NSCLC): > 100 µM
GI50 (HT29 colon): > 100 µM
TGI (HT29 colon): > 100 µM
GI50 (IGROV1 ovarian): > 100 µM
TGI (IGROV1 ovarian): > 100 µM
GI50 (K-562 leukemia): > 100 µM
TGI (K-562 leukemia): > 100 µM
GI50 (KM12 colon): > 100 µM
TGI (KM12 colon): > 100 µM
GI50 (KM20L2 colon): > 100 µM
TGI (KM20L2 colon): > 100 µM
GI50 (LOX IMVI melanoma): > 100 µM
TGI (LOX IMVI melanoma): > 100 µM
GI50 (LXFL 529 NSCLC): > 100 µM
TGI (LXFL 529 NSCLC): > 100 µM
GI50 (M14 melanoma): > 100 µM
TGI (M14 melanoma): > 100 µM
GI50 (MALME-3M melanoma): > 100 µM
TGI (MALME-3M melanoma): > 100 µM
GI50 (MOLT-4 leukemia): > 100 µM
TGI (MOLT-4 leukemia): > 100 µM
GI50 (NCI-H23 lung): > 100 µM
TGI (NCI-H23 lung): > 100 µM
GI50 (NCI-H460 lung): > 100 µM
TGI (NCI-H460 lung): > 100 µM
GI50 (NCI-H522 lung): > 100 µM
TGI (NCI-H522 lung): > 100 µM
GI50 (OVCAR-3 ovarian): > 100 µM
TGI (OVCAR-3 ovarian): > 100 µM
GI50 (OVCAR-4 ovarian): > 100 µM
TGI (OVCAR-4 ovarian): > 100 µM
GI50 (OVCAR-5 ovarian): > 100 µM
TGI (OVCAR-5 ovarian): > 100 µM
GI50 (OVCAR-8 ovarian): > 100 µM
TGI (OVCAR-8 ovarian): > 100 µM
GI50 (RPMI-8226 leukemia): > 100 µM
TGI (RPMI-8226 leukemia): > 100 µM
GI50 (SF-268 CNS): > 100 µM
TGI (SF-268 CNS): > 100 µM
GI50 (SF-295 CNS): > 100 µM
TGI (SF-295 CNS): > 100 µM
GI50 (SF-539 CNS): > 100 µM
TGI (SF-539 CNS): > 100 µM
GI50 (SK-MEL-2 melanoma): > 100 µM
TGI (SK-MEL-2 melanoma): > 100 µM
GI50 (SK-MEL-28 melanoma): > 100 µM
TGI (SK-MEL-28 melanoma): > 100 µM
GI50 (SK-MEL-5 melanoma): > 100 µM
TGI (SK-MEL-5 melanoma): > 100 µM
GI50 (SK-OV-3 ovarian): > 100 µM
TGI (SK-OV-3 ovarian): > 100 µM
GI50 (SN12C renal): > 100 µM
TGI (SN12C renal): > 100 µM
GI50 (SNB-19 CNS): > 100 µM
TGI (SNB-19 CNS): > 100 µM
GI50 (SNB-75 CNS): 18.7 µM
TGI (SNB-75 CNS): > 100 µM
GI50 (SNB-78 CNS): > 100 µM
TGI (SNB-78 CNS): > 100 µM
GI50 (SW-620 colon): > 100 µM
TGI (SW-620 colon): > 100 µM
GI50 (TK-10 renal): > 100 µM
TGI (TK-10 renal): > 100 µM
GI50 (U251 CNS): > 100 µM
TGI (U251 CNS): > 100 µM
GI50 (UACC-257 melanoma): > 100 µM
TGI (UACC-257 melanoma): > 100 µM
GI50 (UACC-62 melanoma): > 100 µM
TGI (UACC-62 melanoma): > 100 µM
GI50 (UO-31 renal): > 100 µM
TGI (UO-31 renal): > 100 µM
